Laboratory results: PubChem BioAssay AID330 (DTP/NCI, 2004)
Several values for one entry are separate records, joined by “and”; a condition that tells them apart may be missing. Equal entries are not always repeated. Inconclusive results and toxic doses are left out. Rule for the calls: active = survival T/C of 150% or more; inactive = T/C below 125% in these data.

Tested on: P388 leukemia ip, CD2F1 mice, survival T/C
Assay: NCI In Vivo Anticancer Drug Screen. Data for tumor model P388 Leukemia (intraperitoneal) in CD2F1 (CDF1) mice
Details: endpoint: median survival time, higher = longer survival
Method in brief: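 Mice carrying the transplanted tumor received test compound or vehicle. Survival was recorded in each group, and the value is the treated-group measurement divided by that of the vehicle-treated control group.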

[1] = dose: 60.0 mg/kg/injection, schedule: Q01DX005 (ip), vehicle: Klucel (hydroxypropylcellulose) (HPC)
[2] = dose: 120.0 mg/kg/injection, schedule: Q01DX005 (ip), vehicle: Klucel (hydroxypropylcellulose) (HPC)
[3] = dose: 240.0 mg/kg/injection, schedule: Q01DX005 (ip), vehicle: Klucel (hydroxypropylcellulose) (HPC)
[4] = dose: 50.0 mg/kg/injection, schedule: Q01DX009 (ip), vehicle: saline with Tween-80
[5] = dose: 100.0 mg/kg/injection, schedule: Q01DX009 (ip), vehicle: saline with Tween-80
[6] = dose: 50.0 mg/kg/injection, schedule: Q01DX005 (ip), vehicle: Klucel (hydroxypropylcellulose) (HPC)
[7] = dose: 100.0 mg/kg/injection, schedule: Q01DX005 (ip), vehicle: Klucel (hydroxypropylcellulose) (HPC)
[8] = dose: 200.0 mg/kg/injection, schedule: Q01DX005 (ip), vehicle: Klucel (hydroxypropylcellulose) (HPC)
[9] = dose: 50.0 mg/kg/injection, schedule: Q01DX005 (ip), vehicle: saline with Tween-80
[10] = dose: 100.0 mg/kg/injection, schedule: Q01DX005 (ip), vehicle: saline with Tween-80

Measured: T/C

COC(=O)C1=C(N2CCCC2)C2c3ccccc3SC12C(=O)OC (stereo not given)
inactive: [1] 104 % of control | [2] 98 % of control | [3] 94 % of control

CCC1(CC)COC(C)(C(=O)O)OC1
inactive: dose: 25.0 mg/kg/injection, schedule: Q01DX009 (ip), vehicle: saline with Tween-80 102 % of control | [4] 102 % of control | [5] 94 % of control | dose: 200.0 mg/kg/injection, schedule: Q01DX009 (ip), vehicle: saline with Tween-80 96 % of control

COC(=O)c1cccc2c1Oc1c(cccc1C(=O)OC)S2
inactive: dose: 100.0 mg/kg/injection, schedule: Q04DX002 (ip), vehicle: Klucel (hydroxypropylcellulose) (HPC) 109 % of control | dose: 200.0 mg/kg/injection, schedule: Q04DX002 (ip), vehicle: Klucel (hydroxypropylcellulose) (HPC) 115 % of control | dose: 400.0 mg/kg/injection, schedule: Q04DX002 (ip), vehicle: Klucel (hydroxypropylcellulose) (HPC) 117 % of control

c1c[nH]c(C2Nc3ccccc3CO2)c1 (stereo not given)
inactive: [6] 115 % of control | [7] 107 % of control | [8] 112 % of control

Cc1ccc(C2C=CC(C#N)=CN2Cc2ccccc2)cc1 (stereo not given)
inactive: [6] 99 % of control | [7] 104 % of control | [8] 101 % of control

CC[N+]1=C(C2=NCCc3ccccc32)c2ccccc2CC1
inactive: dose: 12.5 mg/kg/injection, schedule: Q01DX005 (ip), vehicle: saline 104 % of control | dose: 25.0 mg/kg/injection, schedule: Q01DX005 (ip), vehicle: saline 98 % of control | [9] 92 % of control | dose: 50.0 mg/kg/injection, schedule: Q01DX005 (ip), vehicle: saline 100 % of control

C[N+]1(CCC(/C=C/c2ccc([N+](=O)[O-])cc2)=N\O)CCOCC1
inactive: dose: 7.5 mg/kg/injection, schedule: Q01DX005 (ip), vehicle: saline with Tween-80 107 % of control | dose: 15.0 mg/kg/injection, schedule: Q01DX005 (ip), vehicle: saline with Tween-80 93 % of control | dose: 30.0 mg/kg/injection, schedule: Q01DX005 (ip), vehicle: saline with Tween-80 100 % of control

O=P(c1ccccc1)(c1ccccc1)c1ccccc1.[Cl][Sn]([c]1ccccc1)([c]1ccccc1)[c]1ccccc1
inactive: dose: 100.0 mg/kg/injection, schedule: Q04DX003 (ip), vehicle: saline 100 % of control | dose: 200.0 mg/kg/injection, schedule: Q04DX003 (ip), vehicle: saline 106 % of control | dose: 400.0 mg/kg/injection, schedule: Q04DX003 (ip), vehicle: saline 118 % of control

CCOC(=O)c1c(N)c(=O)oc2c3c(c(O)cc12)OCO3
inactive: [6] 94 % of control | [7] 89 % of control

CC(=O)c1c(O)c(C)c(O)c2c1OC1=Cc3onc(C)c3C(=O)C12C (stereo not given)
inactive: dose: 50.0 mg/kg/injection, schedule: Q01DX009 (ip), vehicle: gum acacia 99 % of control and 102 % of control | dose: 100.0 mg/kg/injection, schedule: Q01DX009 (ip), vehicle: gum acacia 102 % of control and 104 % of control | dose: 200.0 mg/kg/injection, schedule: Q01DX009 (ip), vehicle: gum acacia 92 % of control and 93 % of control

CC1CC(=O)Nc2cc(C(F)(F)F)ccc2N1 (stereo not given)
inactive: [6] 95 % of control | [7] 99 % of control | [8] 93 % of control

Cc1ccc(S(=O)(=O)Nc2ccc(-c3cc4cc(Cl)ccc4o3)cc2)cc1
inactive: dose: 6.25 mg/kg/injection, schedule: Q01DX005 (ip), vehicle: saline with Tween-80 92 % of control | dose: 12.5 mg/kg/injection, schedule: Q01DX005 (ip), vehicle: saline with Tween-80 91 % of control | dose: 25.0 mg/kg/injection, schedule: Q01DX005 (ip), vehicle: saline with Tween-80 87 % of control

COC(=O)c1c(-c2cc(OC)c(OC)cc2[N+](=O)[O-])cn(C)c1C
inactive: [9] 88 % of control | [10] 86 % of control

C1CCC2(CC1)N=C1CCCCC1S2 (stereo not given)
inactive: dose: 6.25 mg/kg/injection, schedule: Q01DX005 (ip), vehicle: saline + Tween-80 + alcohol 106 % of control | dose: 12.5 mg/kg/injection, schedule: Q01DX005 (ip), vehicle: saline + Tween-80 + alcohol 98 % of control | dose: 25.0 mg/kg/injection, schedule: Q01DX005 (ip), vehicle: saline + Tween-80 + alcohol 104 % of control

COc1ccc2cc(C(=O)c3cc4ccc(OC)cc4oc3=O)c(=O)oc2c1
inactive: dose: 60.0 mg/kg/injection, schedule: Q01DX005 (ip), vehicle: saline with Tween-80 104 % of control | dose: 120.0 mg/kg/injection, schedule: Q01DX005 (ip), vehicle: saline with Tween-80 101 % of control | dose: 240.0 mg/kg/injection, schedule: Q01DX005 (ip), vehicle: saline with Tween-80 96 % of control

CC(C)NCCCC(=O)O
inactive: dose: 25.0 mg/kg/injection, schedule: Q01DX009 (ip), vehicle: water 101 % of control | dose: 50.0 mg/kg/injection, schedule: Q01DX009 (ip), vehicle: water 99 % of control | dose: 100.0 mg/kg/injection, schedule: Q01DX009 (ip), vehicle: water 109 % of control | dose: 200.0 mg/kg/injection, schedule: Q01DX009 (ip), vehicle: water 96 % of control | dose: 400.0 mg/kg/injection, schedule: Q01DX009 (ip), vehicle: water 90 % of control

Cc1ccc(S(=O)(=O)N(CCCc2c(C)nc(N)[nH]c2=O)Cc2ccc([N+](=O)[O-])cc2)cc1
inactive: [1] 88 % of control | [2] 86 % of control | [3] 87 % of control

O=P(O/C(=C\c1ccccc1)c1ccccc1)(c1ccccc1)c1ccccc1
inactive: [1] 91 % of control | [2] 90 % of control | [3] 90 % of control

CCCCCCCCCCCCCCCC[N+]1(CCCCCCCCCCCC)CCSCC1 (tested in a mixture with another compound)
inactive: dose: 10.0 mg/kg/injection, schedule: Q01DX009 (ip), vehicle: saline with Tween-80 112 % of control | dose: 40.0 mg/kg/injection, schedule: Q01DX009 (ip), vehicle: saline with Tween-80 121 % of control

COC1=CC(O)(CC(N)=O)c2ccccc2C1=O (stereo not given)
inactive: dose: 3.13 mg/kg/injection, schedule: Q01DX009 (ip), vehicle: distilled water + Tween-80 99 % of control | dose: 6.25 mg/kg/injection, schedule: Q01DX009 (ip), vehicle: distilled water + Tween-80 100 % of control | dose: 12.5 mg/kg/injection, schedule: Q01DX009 (ip), vehicle: distilled water + Tween-80 98 % of control | dose: 25.0 mg/kg/injection, schedule: Q01DX009 (ip), vehicle: distilled water + Tween-80 102 % of control | dose: 50.0 mg/kg/injection, schedule: Q01DX009 (ip), vehicle: distilled water + Tween-80 92 % of control | dose: 100.0 mg/kg/injection, schedule: Q01DX009 (ip), vehicle: distilled water + Tween-80 92 % of control

CCN1C(=O)C=CC1=O
inactive: dose: 1.56 mg/kg/injection, schedule: Q04DX003 (ip), vehicle: saline with Tween-80 109 % of control and 98 % of control | dose: 3.12 mg/kg/injection, schedule: Q04DX003 (ip), vehicle: saline with Tween-80 99 % of control and 96 % of control | dose: 6.25 mg/kg/injection, schedule: Q04DX003 (ip), vehicle: saline with Tween-80 99 % of control and 95 % of control

Cc1cnc(C)c2ccccc12
inactive: [4] 109 % of control | [5] 117 % of control

CC1(C)SC(=O)N(CCC#CCCc2ccccc2)C1=O
inactive: [1] 102 % of control | [2] 100 % of control | [3] 92 % of control

[N-]=[N+]=Nc1ccc(SSCCC(=O)ON2C(=O)CCC2=O)cc1
inactive: [9] 118 % of control | [10] 116 % of control

COC(=O)[C@@]12OC[C@]34C([C@@H](O)C1O)[C@@]1(C)CC(=O)C(O)=C(C)C1C[C@H]3OC(=O)[C@H](OC(=O)c1ccccc1Cl)[C@H]42 (stereo not given in full)
inactive: dose: 0.25 mg/kg/injection, schedule: Q01DX005 (ip), vehicle: DMSO 110 % of control | dose: 0.5 mg/kg/injection, schedule: Q01DX005 (ip), vehicle: DMSO 110 % of control | dose: 1.0 mg/kg/injection, schedule: Q01DX005 (ip), vehicle: DMSO 105 % of control and 97 % of control | dose: 2.0 mg/kg/injection, schedule: Q01DX005 (ip), vehicle: DMSO 107 % of control and 112 % of control | dose: 4.0 mg/kg/injection, schedule: Q01DX005 (ip), vehicle: DMSO 109 % of control | dose: 8.0 mg/kg/injection, schedule: Q01DX005 (ip), vehicle: DMSO 101 % of control and 107 % of control | dose: 16.0 mg/kg/injection, schedule: Q01DX005 (ip), vehicle: DMSO 108 % of control | dose: 32.0 mg/kg/injection, schedule: Q01DX005 (ip), vehicle: DMSO 107 % of control

CCCCCCCCCCCCCN1CCS(=O)(=O)CC1
inactive: dose: 50.0 mg/kg/injection, schedule: Q01DX009 (ip), vehicle: Klucel (hydroxypropylcellulose) (HPC) 98 % of control | dose: 100.0 mg/kg/injection, schedule: Q01DX009 (ip), vehicle: Klucel (hydroxypropylcellulose) (HPC) 94 % of control | dose: 200.0 mg/kg/injection, schedule: Q01DX009 (ip), vehicle: Klucel (hydroxypropylcellulose) (HPC) 89 % of control
